Measured values taken from patent EP0049968A1, “Pharmaceutical compositions” (priority 1980, dated 1982).
Like-named read-outs stand apart in the source and are kept apart here.

Key:
Assay type in all cases: cell-based
[1] = system: highly resistant strains of Pseudomonas aeruginosa (producing both a plasmid-and chromosomally-mediated β-lactamase); experiment: MIC of compound (i) alone and in combination with compound (iii), Pseudomonas aeruginosa strains; details: for MIC: Pseudomonas aeruginosa
[2] = system: Staphylococcus aureus Russell; experiment: MIC of compound (i) alone and in the presence of compound (iv), serial dilution in nutrient agar
Experimental: (§1) Activities of the compound (i) against a number of pathogenic organisms alone, and in the presence of 1.0, 2.5, 5.0 and 10 µg/ml of compound (iv).

[3] = system: Klebsiella aerogenes A; experiment: as above
Experimental: as §1

[4] = system: Proteus mirabilis C889; experiment: as above
Experimental: as §1

[5] = system: Serratia marcescens US39; experiment: as above
Experimental: as §1

[6] = system: Pseudomonas aeruginosa Dalgleish; experiment: as above
Experimental: as §1

[7] = system: E. coli; experiment: as above; details: E. coli JT4 R+
Experimental: as §1

Which results are given for CC1(C)S[C@@H]2[C@H](NC(=O)[C@H](NC(=O)Nc3cnc(Nc4ccc(S(N)(=O)=O)cc4)nc3O)c3ccc(O)cc3)C(=O)N2[C@H]1C(=O)O [compound (i)]?
MIC ([1]; read-out: MIC µg/ml compound (i) alone): > 160 µg/mL; MIC ([1]; read-out: MIC µg/ml compound (i) alone, Geometric mean): > 160 µg/mL; MIC µg/ml compound (i) compound (iii) (µg/ml) 1, Geometric mean ([1]; geometric mean of 6 Pseudomonas aeruginosa strains, with compound (iii) 1 µg/ml, 95% confidence limits (13.7-58.5)): 28.3 µg/mL; MIC µg/ml compound (i) compound (iii) (µg/ml) 2, Geometric mean ([1]; geometric mean of 6 Pseudomonas aeruginosa strains, with compound (iii) 2 µg/ml, 95% confidence limits (4.7-21.4)): 10 µg/mL; MIC µg/ml compound (i) compound (iii) (µg/ml) 5, Geometric mean ([1]; geometric mean of 6 Pseudomonas aeruginosa strains, with compound (iii) 5 µg/ml, 95% confidence limits (3.1-12.9)): 6.1 µg/mL; MIC µg/ml compound (i) compound (iii) (µg/ml) 10, Geometric mean ([1]; geometric mean of 6 Pseudomonas aeruginosa strains, with compound (iii) 10 µg/ml, 95% confidence limits (2.7-14.6)): 6.3 µg/mL; MIC µg/ml compound (i) alone ([1]; strain 1822): >160 µg/mL; MIC µg/ml compound (i) compound (iii) (µg/ml) 1 ([1]; strain 1822, with compound (iii) 1 µg/ml): 40 µg/mL; MIC µg/ml compound (i) compound (iii) (µg/ml) 2 ([1]; strain 1822, with compound (iii) 2 µg/ml): 5 µg/mL; MIC µg/ml compound (i) compound (iii) (µg/ml) 5 ([1]; strain 1822, with compound (iii) 5 µg/ml): 2.5 µg/mL; MIC µg/ml compound (i) compound (iii) (µg/ml) 10 ([1]; strain 1822, with compound (iii) 10 µg/ml): 2.5 µg/mL; MIC µg/ml compound (i) compound (iii) (µg/ml) 1 ([1]; strain Dalgleish, with compound (iii) 1 µg/ml): 20 µg/mL; MIC µg/ml compound (i) compound (iii) (µg/ml) 2 ([1]; strain Dalgleish, with compound (iii) 2 µg/ml): 10 µg/mL; MIC µg/ml compound (i) compound (iii) (µg/ml) 5 ([1]; strain Dalgleish, with compound (iii) 5 µg/ml): 5 µg/mL; MIC µg/ml compound (i) compound (iii) (µg/ml) 10 ([1]; strain Dalgleish, with compound (iii) 10 µg/ml): 10 µg/mL; MIC µg/ml compound (i) alone ([1]; strain FR6): >160 µg/mL; MIC µg/ml compound (i) compound (iii) (µg/ml) 1 ([1]; strain FR6, with compound (iii) 1 µg/ml): 80 µg/mL; MIC µg/ml compound (i) compound (iii) (µg/ml) 2 ([1]; strain FR6, with compound (iii) 2 µg/ml): 40 µg/mL; MIC µg/ml compound (i) compound (iii) (µg/ml) 5 ([1]; strain FR6, with compound (iii) 5 µg/ml): 20 µg/mL; MIC µg/ml compound (i) compound (iii) (µg/ml) 10 ([1]; strain FR6, with compound (iii) 10 µg/ml): 10 µg/mL; MIC µg/ml compound (i) alone ([1]; strain FR13): >160 µg/mL; MIC µg/ml compound (i) compound (iii) (µg/ml) 1 ([1]; strain FR13, with compound (iii) 1 µg/ml): 40 µg/mL; MIC µg/ml compound (i) compound (iii) (µg/ml) 2 ([1]; strain FR13, with compound (iii) 2 µg/ml): 10 µg/mL; MIC µg/ml compound (i) compound (iii) (µg/ml) 5 ([1]; strain FR13, with compound (iii) 5 µg/ml): 5 µg/mL; MIC µg/ml compound (i) compound (iii) (µg/ml) 10 ([1]; strain FR13, with compound (iii) 10 µg/ml): 2.5 µg/mL; MIC µg/ml compound (i) alone ([1]; strain Horton): >160 µg/mL; MIC µg/ml compound (i) compound (iii) (µg/ml) 1 ([1]; strain Horton, with compound (iii) 1 µg/ml): 20 µg/mL; MIC µg/ml compound (i) compound (iii) (µg/ml) 2 ([1]; strain Horton, with compound (iii) 2 µg/ml): 10 µg/mL; MIC µg/ml compound (i) compound (iii) (µg/ml) 5 ([1]; strain Horton, with compound (iii) 5 µg/ml): 10 µg/mL; MIC µg/ml compound (i) compound (iii) (µg/ml) 10 ([1]; strain Horton, with compound (iii) 10 µg/ml): 20 µg/mL; MIC µg/ml compound (i) alone ([1]; strain P22): >160 µg/mL; MIC µg/ml compound (i) compound (iii) (µg/ml) 1 ([1]; strain P22, with compound (iii) 1 µg/ml): 10 µg/mL; MIC µg/ml compound (i) compound (iii) (µg/ml) 2 ([1]; strain P22, with compound (iii) 2 µg/ml): 5 µg/mL; MIC µg/ml compound (i) compound (iii) (µg/ml) 5 ([1]; strain P22, with compound (iii) 5 µg/ml): 5 µg/mL; MIC µg/ml compound (i) compound (iii) (µg/ml) 10 ([1]; strain P22, with compound (iii) 10 µg/ml): 5 µg/mL; MIC (μg/ml) for compound (i) ([2]; compound (iv) 0 μg/ml (alone)): 50 µg/mL; MIC (μg/ml) for compound (i) ([2]; compound (iv) 1.0 μg/ml): 2.5 µg/mL; MIC (μg/ml) for compound (i) ([2]; compound (iv) 2.5 μg/ml): 2.5 µg/mL; MIC (μg/ml) for compound (i) ([2]; compound (iv) 5.0 μg/ml): 1.0 µg/mL; MIC (μg/ml) for compound (i) ([2]; compound (iv) 10 μg/ml): 1.0 µg/mL; MIC (μg/ml) for compound (i) ([3]; compound (iv) 0 μg/ml (alone)): 5.0 µg/mL; MIC (μg/ml) for compound (i) ([3]; compound (iv) 1.0 μg/ml): 0.05 µg/mL; MIC (μg/ml) for compound (i) ([3]; compound (iv) 2.5 μg/ml): 0.05 µg/mL; MIC (μg/ml) for compound (i) ([3]; compound (iv) 5.0 μg/ml): 0.05 µg/mL; MIC (μg/ml) for compound (i) ([3]; compound (iv) 10 μg/ml): 0.05 µg/mL; MIC (μg/ml) for compound (i) ([4]; compound (iv) 0 μg/ml (alone)): >100 µg/mL; MIC (μg/ml) for compound (i) ([4]; compound (iv) 1.0 μg/ml): 0.5 µg/mL; MIC (μg/ml) for compound (i) ([4]; compound (iv) 2.5 μg/ml): 0.2 µg/mL; MIC (μg/ml) for compound (i) ([4]; compound (iv) 5.0 μg/ml): 0.1 µg/mL; MIC (μg/ml) for compound (i) ([4]; compound (iv) 10 μg/ml): 0.1 µg/mL; MIC (μg/ml) for compound (i) ([5]; compound (iv) 0 μg/ml (alone)): 50 µg/mL; MIC (μg/ml) for compound (i) ([5]; compound (iv) 1.0 μg/ml): 0.5 µg/mL; MIC (μg/ml) for compound (i) ([5]; compound (iv) 2.5 μg/ml): 1.0 µg/mL; MIC (μg/ml) for compound (i) ([5]; compound (iv) 5.0 μg/ml): 2.5 µg/mL; MIC (μg/ml) for compound (i) ([5]; compound (iv) 10 μg/ml): 5.0 µg/mL; MIC (μg/ml) for compound (i) ([6]; inoculum 10^-2, compound (iv) 0 μg/ml (alone)): 50 µg/mL; MIC (μg/ml) for compound (i) ([6]; inoculum 10^-2, compound (iv) 1.0 μg/ml): 2.5 µg/mL; MIC (μg/ml) for compound (i) ([6]; inoculum 10^-2, compound (iv) 2.5 μg/ml): 1.0 µg/mL; MIC (μg/ml) for compound (i) ([6]; inoculum 10^-2, compound (iv) 5.0 μg/ml): 1.0 µg/mL; MIC (μg/ml) for compound (i) ([6]; inoculum 10^-2, compound (iv) 10 μg/ml): 2.5 µg/mL; MIC (μg/ml) for compound (i) ([6]; inoculum Undiluted, compound (iv) 0 μg/ml (alone)): >100 µg/mL; MIC (μg/ml) for compound (i) ([6]; inoculum Undiluted, compound (iv) 1.0 μg/ml): 10 µg/mL; MIC (μg/ml) for compound (i) ([6]; inoculum Undiluted, compound (iv) 2.5 μg/ml): 5.0 µg/mL; MIC (μg/ml) for compound (i) ([6]; inoculum Undiluted, compound (iv) 5.0 μg/ml): 5.0 µg/mL; MIC (μg/ml) for compound (i) ([6]; inoculum Undiluted, compound (iv) 10 μg/ml): 10 µg/mL; MIC (μg/ml) for compound (i) ([7]; compound (iv) 0 μg/ml (alone)): >100 µg/mL; MIC (μg/ml) for compound (i) ([7]; compound (iv) 1.0 μg/ml): 10 µg/mL
